{"source": "patent US10214512B2", "about": "“Factor XIA inhibitors” (MERCK SHARP & DOHME CORP., priority 2015, dated 2019)"}
{"molecular_target": "purified human Factor XIa (Homo sapiens (Human), UniProt P03951)", "sequence (P03951 388-625)": "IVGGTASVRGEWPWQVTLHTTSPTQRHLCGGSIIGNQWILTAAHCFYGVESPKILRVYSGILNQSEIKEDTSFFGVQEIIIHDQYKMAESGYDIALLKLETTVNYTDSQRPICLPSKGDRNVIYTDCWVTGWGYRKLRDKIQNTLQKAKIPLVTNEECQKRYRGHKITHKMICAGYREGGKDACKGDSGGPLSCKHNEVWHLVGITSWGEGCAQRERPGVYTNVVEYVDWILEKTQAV", "sequence (P03951 19-387 partner)": "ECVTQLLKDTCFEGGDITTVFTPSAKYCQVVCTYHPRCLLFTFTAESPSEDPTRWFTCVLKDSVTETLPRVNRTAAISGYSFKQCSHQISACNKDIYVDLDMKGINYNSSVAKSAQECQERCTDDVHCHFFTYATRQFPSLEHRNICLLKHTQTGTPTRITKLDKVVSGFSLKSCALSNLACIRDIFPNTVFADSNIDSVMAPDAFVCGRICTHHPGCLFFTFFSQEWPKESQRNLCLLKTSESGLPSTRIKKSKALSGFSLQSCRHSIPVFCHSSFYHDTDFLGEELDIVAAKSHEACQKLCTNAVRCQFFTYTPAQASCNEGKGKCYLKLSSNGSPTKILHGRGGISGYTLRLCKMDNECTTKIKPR", "assay": "Factor XIa Assay", "assay_type": "biochemical", "settings": "purified human Factor XIa 40 pM; substrate Z-Gly-Pro-Arg-AFC 100 μM; 50 mM HEPES pH 7.4; read-out: Human FXIa Ki", "experimental": "The effectiveness of a compound of the present invention as an inhibitor of Coagulation Factor XIa can be determined using a relevant purified serine protease, and an appropriate synthetic substrate. The rate of hydrolysis of the chromogenic or fluorogenic substrate by the relevant serine protease was measured both in the absence and presence of compounds of the present invention. Assays were conducted at rt or at 37° C. […] A decrease in the rate of fluorescence change in the presence of inhibitor is indicative of enzyme inhibition. Such methods are known to one skilled in the art. The results of this assay are expressed as the inhibitory constant, Ki.\nFactor XIa determinations were made in 50 mM HEPES buffer at pH 7.4 containing 150 mM NaCl, 5 mM CaCl2, and 0.1% PEG 8000 (polyethylene glycol; JT Baker or Fisher Scientific). Determinations were made using purified human Factor XIa at a final concentration of 40 pM (Sekisui Diagnostics) and he synthetic substrate, Z-Gly-Pro-Arg-AFC, TFA salt (Sigma #C0980) at a concentration of 100 μM.\nTimes required to achieve equilibration between enzyme and inhibitor were determined in control experiments. Initial velocities of product formation in the absence (Vo) or presence of inhibitor (Vi) were measured. Assuming competitive inhibition, and that unity is negligible compared Km/[S], [I]/e, and [I]/e (where [S], [I], and e respectively represent the total concentrations, of substrate, inhibitor and enzyme), the equilibrium constant (Ki) for dissociation of the inhibitor from the enzyme can be obtained from the dependence of Vo/Vi on [I] shown in the following equation.", "units": {"Ki": "nM"}}
{"molecule": "COC(=O)Nc1ccc2c(c1)NC(=O)CCCCC(c1ccc(-c3c(F)ccc(Cl)c3F)c[n+]1[O-])c1cnn-2c1", "note": "(racemic) [Example 162, (Z)-5-(3-chloro-2,6-difluorophenyl)-2-(2^5-((methoxycarbonyl)amino)-4-oxo-1^1H-3-aza-1(1,4)-pyrazola-2(1,2)-benzenacyclononaphane-9-yl)pyridine 1-oxide]", "Ki": 6.8}
{"molecule": "O=C1CCCCC(c2ccc(-c3cc(Cl)ccc3-n3cnnn3)cn2)c2nc(c[nH]2)-c2cc(F)ccc2N1", "note": "(single isomer, unassigned) [Example 10-a, (Z)-9-(5-(5-chloro-2-(1H-tetrazol-1-yl)phenyl)pyridin-2-yl)-2^5-fluoro-1^1H -3-aza-1(4,2)-imidazola-2(1,2)-benzenacyclononaphan-4-one]", "Ki": 83.8}
{"molecule": "COC(=O)Nc1ccc2c(c1)NC(=O)C(C)CCCC(c1ccc(-c3c(F)ccc(Cl)c3F)c[n+]1[O-])c1cccc-2c1", "note": "(single isomer, unassigned) [Example 50-c, 5-(3-chloro-2,6-difluorophenyl)-2-(2^4-((methoxycarbonyl)amino)-5-methyl-4-oxo-3-aza-1(1,3),2(1,2)-dinenzenacyclononaphane-9-yl)pyridine 1-oxide]", "Ki": 270}
{"molecule": "COC(=O)Nc1ccc2c(c1)NC(=O)C(C)CCCC(c1ccc(-c3c(F)ccc(Cl)c3F)c[n+]1[O-])c1cccc-2c1", "note": "(single isomer, unassigned) [Example 50-d, 5-(3-chloro-2,6-difluorophenyl)-2-(2^4-((methoxycarbonyl)amino)-5-methyl-4-oxo-3-aza-1(1,3),2(1,2)-dinenzenacyclononaphane-9-yl)pyridine 1-oxide]", "Ki": 209}
{"molecule": "COC(=O)Nc1ccc2c(c1)NC(=O)CCCC[C@H](c1ccc(-c3c(F)ccc(Cl)c3F)c[n+]1[O-])c1cc(F)cc-2c1", "note": "(single isomer, unassigned) [Example 67]", "Ki": 0.55}
{"molecule": "O=C(C1CCCCC(c2ccc(-c3cc(Cl)ccc3-n3cnnn3)c[n+]2[O-])c2cccc(c2)-c2cc(F)ccc2N1)N1CCCC1", "note": "(single isomer, unassigned) [Example 79-a, 5-(5-Chloro-2-(1H-tetrazol-1-yl)phenyl)-2-(2^5-fluoro-4-(pyrrolidine-1-carbonyl)-3-aza-1(1,3),2(1,2)-dibenzenacyclononaphane-9-yl)pyridine 1-oxide]", "Ki": 47.8}
{"molecule": "COC(=O)Nc1cc(F)c2c(c1)NC(=O)C(C)CCCC(c1ccc(-c3c(F)ccc(Cl)c3F)c[n+]1[O-])c1cccc-2c1", "note": "(single isomer, unassigned) [Example 85-a, 5-(3-Chloro-2,6-difluorophenyl)-2-(2^6-fluoro-2^4-((methoxycarbonyl)amino)-5-methyl-4-oxo-3-aza-1(1,3),2(1,2)-dibenzenacyclononaphane-9-yl)pyridine 1-oxide]", "Ki": "> 875"}
{"molecule": "COC(=O)Nc1cc(F)c2c(c1)NC(=O)C(C)CCCC(c1ccc(-c3c(F)ccc(Cl)c3F)c[n+]1[O-])c1cccc-2c1", "note": "(single isomer, unassigned) [Example 85-d, 5-(3-Chloro-2,6-difluorophenyl)-2-(2^6-fluoro-2^4-((methoxycarbonyl)amino)-5-methyl-4-oxo-3-aza-1(1,3),2(1,2)-dibenzenacyclononaphane-9-yl)pyridine 1-oxide]", "Ki": 160}
{"molecule": "COC(=O)Nc1ccc2c(c1)NC(=O)C(C)CCCC(c1ccc(-c3c(F)ccc(Cl)c3F)c[n+]1[O-])c1ccc(F)c-2c1", "note": "(single isomer, unassigned) [Example 86-b, 5-(3-Chloro-2,6-difluorophenyl)-2-(1^6-fluoro-2^4-((methoxycarbonyl)amino)-5-methyl-4-oxo-3-aza-1(1,3),2(1,2) -dibenzenacyclononaphane-9-yl)pyridine 1-oxide]", "Ki": 782}
{"molecule": "COC(=O)Nc1ccc2c(c1)NC(=O)C(C)CCCC(c1ccc(-c3c(F)ccc(Cl)c3F)c[n+]1[O-])c1ccc(F)c-2c1", "note": "(single isomer, unassigned) [Example 86-c, 5-(3-Chloro-2,6-difluorophenyl)-2-(1^6-fluoro-2^4-((methoxycarbonyl)amino)-5-methyl-4-oxo-3-aza-1(1,3),2(1,2) -dibenzenacyclononaphane-9-yl)pyridine 1-oxide]", "Ki": 115}
